The values below come from US4263255A, “Assay method and compounds” (Burroughs Wellcome Co., priority 1979, dated 1981).

The target of experiment [1] is opiate receptor. Briefly: Opiate receptor affinity by method of Pasternak et al. using tritiated naloxone, absence of sodium ions. The class given is binding. Here is the method: *Method of Pasternak, G. W. et al., Molecular Pharmacology, 11, 340-351
(1975) using tritiated naloxone and in the absence of sodium ions; assays
performed at 4° C. in the presence of bacitracin (50 μg/ml) in
trishydrochloric acid buffer (50 mM, pH 7.4).
(§1) The opiate receptor IC50 (M) was ascertained by the method indicated in Example 1.
as §1

For experiment [2], the system named is opiate receptor. Nature of the experiment: Specific binding affinity for the opiate receptor of the radio-iodinated peaks. To be noted: first peak (monoiodinated) compared with second peak (diiodinated). As for the experimental part: The material comprising this peak was applied to a Sephadex 2-(diethylamino)ethyl ether column and eluted with sodium borate buffer (12.5 mM, pH 9.0, 0.1 N sodium chloride).

[3] abbreviates: TABLE 2 (Example 3), method indicated in Example 1: tritiated naloxone.
The mark [4] stands for this setting: TABLE 1 (Example 2), method indicated in Example 1: tritiated naloxone.
The mark [5] stands for this setting: table of Example 1, tritiated naloxone, 4° C., bacitracin 50 μg/ml, pH 7.4.

Where a name gives a salt, the structure may show the parent alone. Where a SMILES comes first, the peptide text is derived from it. Where no end group is shown, it is not given here. [ ]: non-standard residue; d: D form.

On opiate receptor [1] (setting [3]), `C[C@@H](NC(=O)[C@@H](N)Cc1ccc(O)cc1)C(=O)NCC(=O)N[C@@H](Cc1ccccc1)C(=O)N[C@H](C(=O)O)[C@@H](C)O` [(Q), H . Tyr . D-Ala . Gly . Phe . Thr . OH HCl] (H-Y[dA]GFT-OH) registered an IC50 of 90 nM.
On the same count and under the same terms, as for `CC(C)C[C@H](NC(=O)[C@H](Cc1ccccc1)NC(=O)[C@H](C)NC(=O)[C@@H](C)NC(=O)[C@@H](N)Cc1ccc(O)cc1)C(=O)O` [(N), H . Tyr . D-Ala . Ala . Phe . Leu . OH HCl] (H-Y[dA]AFL-OH), the figure is 80 nM; as for `COC(=O)[C@@H](CC(C)C)NC(=O)[C@H](Cc1ccccc1)NC(=O)CNC(=O)CNC(=O)[C@@H](N)Cc1ccc(O)cc1` [(W), H . Tyr . Gly . Gly . Phe . D-Leu . OMe HCl], 60 nM.
Still for that read-out and setting: the same measure for `CN[C@@H](Cc1ccc(O)cc1)C(=O)N[C@H](C)C(=O)NCC(=O)N[C@@H](Cc1ccccc1)C(=O)N[C@H](CC(C)C)C(=O)O` [(V), H . MeTyr . D-Ala . Gly . Phe . D-Leu . OH HCl]: 30 nM.
Still for that read-out and setting: as for `COC(=O)[C@@H](CCSC)NC(=O)[C@H](Cc1ccccc1)NC(=O)CNC(=O)CNC(=O)[C@@H](N)Cc1ccc(O)cc1` [(Y), H . Tyr . Gly . Gly . Phe . D-Met . OMe HCl], the figure is 60 nM.
The compound `CC(C)C[C@H](NC(=O)[C@H](Cc1ccccc1)NC(=O)CNC(=O)[C@@H](C)NC(=O)[C@@H](N)Cc1ccc(O)cc1)C(=O)N[C@H](C(=O)O)[C@@H](C)O` [(G), H . Tyr . D-Ala . Gly . Phe . Leu . Thr . OH HCl] (H-Y[dA]GFLT-OH) returned an IC50 at opiate receptor [1] (setting [4]) of 8 nM.
With `CCCC[C@H](NC(=O)[C@H](Cc1ccccc1)NC(=O)CNC(=O)CNC(=O)[C@@H](N)Cc1ccc(O)cc1)C(=O)O` [(O), H . Tyr . Gly . Gly . Phe . Nle . OH HCl], on opiate receptor [1] (setting [3]), the IC50 was 80 nM.
On the same count and under the same terms, as for `CSCC[C@@H](NC(=O)[C@H](Cc1ccccc1)NC(=O)CNC(=O)CNC(=O)[C@@H](N)Cc1ccc(O)cc1)C(=O)O` [(Z), H . Tyr . Gly . Gly . Phe . D-Met . OH HCl], the figure is 10 nM; as for `CN[C@@H](Cc1ccc(O)cc1)C(=O)N[C@H](C)C(=O)NCC(=O)N[C@@H](Cc1ccccc1)C(=O)N[C@H](CC(C)C)C(N)=O` [(X), H . MeTyr . D-Ala . Gly . Phe . D-Leu . NH2 HCl], 20 nM.
On the same count and under the same terms, as for “YGGFV [(M), H . Tyr . Gly . Gly . Phe . Val . OH HCl]”, the figure is 80 nM.
In turn, `CSCC[C@@H](NC(=O)[C@H](Cc1ccccc1)NC(=O)CNC(=O)[C@@H](C)NC(=O)[C@@H](N)Cc1ccc(O)cc1)C(=O)O` [(J), H . Tyr . D-Ala . Gly . Phe . D-Met . OH HCl] yielded a concentration for half-maximal inhibition (IC50) at opiate receptor [1] (setting [4]) of 8 nM.
`CC(C)C[C@@H](NC(=O)[C@H](Cc1ccccc1)NC(=O)CNC(=O)CNC(=O)[C@@H](N)Cc1ccc(O)cc1)C(=O)O` [(P), H . Tyr . Gly . Gly . Phe . D-Leu . OH HCl]: at opiate receptor [1] (setting [3]), the IC50 was 25 nM.
On the same count and under the same terms, the same measure for `CC(C)C[C@@H](NC(=O)[C@H](Cc1ccccc1)NC(=O)CNC(=O)[C@@H](C)NC(=O)[C@@H](N)Cc1ccc(O)cc1)C(=O)N[C@H](C(=O)O)[C@@H](C)O` [(R), H . Tyr . D-Ala . Gly . Phe . D-Leu . Thr . OH HCl] (H-Y[dA]GF[dL]T-OH): 30 nM.
With `CC(C)C[C@H](NC(=O)[C@H](Cc1ccccc1)NC(=O)CNC(=O)[C@@H](C)NC(=O)[C@@H](N)Cc1ccc(O)c([125I])c1)C(=O)O` [material of the first peak, H.Tyr(3-^125 I).D-Ala.Gly.Phe.Leu.OH], the “specific binding affinity (for the opiate receptor)” value with opiate receptor [2] was “greater specific binding affinity”.
On to `CSCC[C@H](NC(=O)[C@H](Cc1ccccc1)NC(=O)CNC(=O)[C@@H](C)NC(=O)[C@@H](N)Cc1ccc(O)cc1)C(=O)N[C@H](C(=O)O)[C@@H](C)O` [(E), H . Tyr . D-Ala . Gly . Phe . Met . Thr . OH HCl] (H-Y[dA]GFMT-OH), for which, at opiate receptor [1] (setting [4]), the IC50 was determined as 5.6 nM.
For the compound `CC(C)C[C@H](NC(=O)[C@H](Cc1ccccc1)NC(=O)CNC(=O)[C@@H](C)NC(=O)[C@@H](N)Cc1ccc(O)cc1)C(=O)O` [Compound (A), H . Tyr . D-Ala . Gly . Phe . Leu . OH HCl], the IC50 on opiate receptor [1] (setting [5]) came out at […].
As for `CSCC[C@@H](NC(=O)[C@H](Cc1ccccc1)NC(=O)CNC(=O)[C@@H](C)NC(=O)[C@@H](N)Cc1ccc(O)cc1)C(=O)N[C@H](C(=O)O)[C@@H](C)O` [(S), H . Tyr . D-Ala . Gly . Phe . D-Met . Thr . OH HCl] (H-Y[dA]GF[dM]T-OH), inhibition at opiate receptor [1] (setting [3]) was half-maximal at 70 nM (IC50).
Compound `COC(=O)[C@@H](CC(C)C)NC(=O)[C@H](Cc1ccc(Cl)cc1)NC(=O)CNC(=O)[C@@H](C)NC(=O)[C@@H](N)Cc1ccc(O)cc1` [(L), H . Tyr . D-Ala . Gly . Phe (4Cl) . D-Leu . OMe HCl] showed an IC50 against opiate receptor [1] (setting [4]) of 2 nM.
At opiate receptor [1] (setting [3]), `CC(C)C[C@@H](NC(=O)[C@H](Cc1ccccc1)NC(=O)CNC(=O)[C@@H](C)NC(=O)[C@@H](N)Cc1ccc(O)cc1)C(=O)Oc1ccc(Cl)cc1` [(U), H . Tyr . D-Ala . Gly . Phe . D-Leu . p-chlorophenyl ester HCl] displayed an IC50 of 50 nM.
In turn, `CSCC[C@H](NC(=O)[C@H](Cc1ccccc1)NC(=O)CNC(=O)[C@@H](C)NC(=O)[C@@H](N)Cc1ccc(O)cc1)C(=O)O` [(B), H . Tyr . D-Ala . Gly . Phe . Met . OH HCl] registered an IC50 against opiate receptor [1] (setting [5]) of 3.8 nM.
Consider `CC(C)C[C@@H](NC(=O)[C@H](Cc1ccccc1)NC(=O)CNC(=O)[C@@H](C)NC(=O)[C@@H](N)Cc1ccc(O)cc1)C(=O)O` [(C), H . Tyr . D-Ala . Gly . Phe . D-Leu . OH HCl], for which the IC50 against opiate receptor [1] (setting [5]) was […].
With `CC(C)C[C@@H](NC(=O)[C@H](Cc1ccc(Cl)cc1)NC(=O)CNC(=O)[C@@H](C)NC(=O)[C@@H](N)Cc1ccc(O)cc1)C(=O)O` [(K), H . Tyr . D-Ala . Gly . Phe (4Cl) . D-Leu . OH HCl], the IC50 on opiate receptor [1] (setting [4]) is 1 nM.
The compound `C[C@@H](NC(=O)[C@@H](N)Cc1ccc(O)cc1)C(=O)NCC(=O)N[C@@H](Cc1ccccc1)C(=O)O` [(T), H . Tyr . D-Ala . Gly . Phe . OH HCl] came in with an IC50 on opiate receptor [1] (setting [3]) of 70 nM.
Still for that read-out and setting: as for `CCNC(=O)[C@@H](CC(C)C)NC(=O)[C@H](Cc1ccc(Cl)cc1)NC(=O)CNC(=O)[C@@H](C)NC(=O)[C@@H](N)Cc1ccc(O)cc1` [(A1), H . Tyr . D-Ala . Gly . Phe(4Cl) . D-Leu . NHEt HCl], the figure is 80 nM.
With `COC(=O)[C@H](CCSC)NC(=O)[C@H](Cc1ccccc1)NC(=O)CNC(=O)[C@@H](C)NC(=O)[C@@H](N)Cc1ccc(O)cc1` [(D), H . Tyr . D-Ala . Gly . Phe . Met . OMe], 5 nM corresponded to half-maximal inhibition against opiate receptor [1] (setting [4]) (IC50).

By IC50 is commonly meant the concentration at which inhibition is half-maximal. High values mean weaker potency in that assay, low ones greater potency in that assay.
